According to ChEMBL document CHEMBL2203207, “Inhibition of monoamine oxidase by derivatives of piperine, an alkaloid from the pepper plant Piper nigrum, for possible use in Parkinson's disease” (Bioorg Med Chem Lett, 2012):

Legend:
[1] = biological target: T1, Amine oxidase [flavin-containing] B (Homo sapiens, UniProt P27338); test: Inhibition of MAO-B assessed as inhibition of kyneuramine conversion to 4-hydroxyquinoline after 20 mins by fluorescence assay
T1 sequence (P27338 whole entry): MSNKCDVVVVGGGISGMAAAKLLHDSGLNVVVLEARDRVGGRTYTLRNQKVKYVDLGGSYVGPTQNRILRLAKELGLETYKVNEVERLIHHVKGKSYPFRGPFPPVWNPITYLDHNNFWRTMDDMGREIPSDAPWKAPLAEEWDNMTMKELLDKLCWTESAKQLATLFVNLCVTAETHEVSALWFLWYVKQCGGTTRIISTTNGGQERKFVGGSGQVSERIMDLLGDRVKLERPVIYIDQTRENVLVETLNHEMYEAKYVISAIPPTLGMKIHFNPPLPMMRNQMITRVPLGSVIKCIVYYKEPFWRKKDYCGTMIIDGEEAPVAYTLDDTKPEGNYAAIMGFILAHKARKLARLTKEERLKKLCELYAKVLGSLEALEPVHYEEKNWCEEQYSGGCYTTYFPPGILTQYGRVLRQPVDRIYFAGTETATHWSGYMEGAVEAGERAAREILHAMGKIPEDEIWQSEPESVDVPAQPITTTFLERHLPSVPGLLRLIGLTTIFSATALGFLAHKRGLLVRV

[2] = biological target: T2, Albumin (Bos taurus, UniProt P02769); test: Binding affinity to bovine serum albumin at 16 uM by fluorescence assay; assay type: ADME; details: cattle, isolated protein
[3] = biological target: T3, Amine oxidase [flavin-containing] A (Homo sapiens, UniProt P21397); test: Inhibition of MAO-A assessed as inhibition of kyneuramine conversion to 4-hydroxyquinoline after 20 mins by fluorescence assay
T3 sequence (P21397 whole entry): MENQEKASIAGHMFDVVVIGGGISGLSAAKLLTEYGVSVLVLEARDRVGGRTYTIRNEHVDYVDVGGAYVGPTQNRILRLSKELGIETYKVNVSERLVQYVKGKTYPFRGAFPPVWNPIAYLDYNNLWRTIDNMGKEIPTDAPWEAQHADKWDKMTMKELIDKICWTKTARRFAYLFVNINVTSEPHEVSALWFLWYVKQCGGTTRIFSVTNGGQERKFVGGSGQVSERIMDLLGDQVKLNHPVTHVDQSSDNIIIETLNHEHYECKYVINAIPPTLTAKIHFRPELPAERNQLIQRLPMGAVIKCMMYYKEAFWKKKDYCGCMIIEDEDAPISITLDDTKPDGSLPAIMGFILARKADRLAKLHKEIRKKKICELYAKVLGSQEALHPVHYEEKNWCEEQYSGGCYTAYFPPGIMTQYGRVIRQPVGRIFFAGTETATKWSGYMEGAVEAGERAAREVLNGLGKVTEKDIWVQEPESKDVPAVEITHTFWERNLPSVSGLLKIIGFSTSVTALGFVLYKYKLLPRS

[4] = biological target: T2, Albumin; test: Binding affinity to bovine serum albumin at 8.9 uM by fluorescence assay; assay type: ADME; details: cattle, isolated protein

T2 sequence (P02769 whole entry): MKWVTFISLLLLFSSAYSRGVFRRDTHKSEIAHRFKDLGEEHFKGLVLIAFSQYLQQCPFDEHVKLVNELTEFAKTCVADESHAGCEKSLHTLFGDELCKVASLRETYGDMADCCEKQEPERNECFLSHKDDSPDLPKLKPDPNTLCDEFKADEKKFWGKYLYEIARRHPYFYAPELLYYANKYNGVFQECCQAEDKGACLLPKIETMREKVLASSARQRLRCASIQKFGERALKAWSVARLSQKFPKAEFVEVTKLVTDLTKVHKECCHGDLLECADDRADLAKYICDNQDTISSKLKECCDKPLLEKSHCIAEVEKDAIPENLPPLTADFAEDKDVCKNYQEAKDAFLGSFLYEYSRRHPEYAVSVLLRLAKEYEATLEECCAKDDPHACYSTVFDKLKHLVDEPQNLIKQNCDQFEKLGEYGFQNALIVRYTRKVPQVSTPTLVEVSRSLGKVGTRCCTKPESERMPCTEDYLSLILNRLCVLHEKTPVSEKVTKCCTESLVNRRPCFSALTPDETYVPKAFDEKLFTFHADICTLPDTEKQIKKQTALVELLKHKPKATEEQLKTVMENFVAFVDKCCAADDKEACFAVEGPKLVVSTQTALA

Row | SMILES | IC50 [1] [µM] | Activity [2] [%] | IC50 [3] [µM] | Activity [4] [%]
1 | CC1CCN(C(=O)/C=C/c2ccc3c(c2)OCO3)CC1 | 0.497 | 50 | > 100 | –
2 | O=C(CN1CCCCC1)c1ccc2c(c1)OCO2 | 3.18 | – | > 100 | –
3 | O=C(/C=C/c1ccc2c(c1)OCO2)N1CCOCC1 | 6.39 | – | > 100 | –
4 | O=C(c1ccc2c(c1)OCO2)N1CCCCCC1 | > 100 | – | > 100 | –
5 | S=C(c1ccc2c(c1)OCO2)N1CCCCC1 | 15.4 | – | > 100 | –
6 | O=C(/C=C/c1ccc2c(c1)OCO2)NC1CCCCC1 | 0.666 | – | > 100 | –
7 | O=C(/C=C/C=C/c1ccc2c(c1)OCO2)N1CCCCC1 [PIPERINE] | 0.483 | – | 59 | 50
8 | O=C(CCN1CCCCC1)c1ccc2c(c1)OCO2 | 3.43 | – | > 100 | –
9 | O=C(/C=C/c1ccc2c(c1)OCO2)N1CCCC1 | 4.89 | – | > 100 | –
10 | O=C(/C=C/c1ccc2c(c1)OCO2)NC1CCCC1 | 1.13 | – | > 100 | –
